Measured values from US7112654B2, “Ligand for vascular endothelial growth factor receptor” (Supratek Pharma Inc., priority 2001, dated 2006).
Ends that are not written are not given here.

Columns and labels:
hFlt-1 = hFlt-1 (Homo sapiens, UniProt P17948); assay: Binding of alanine-substituted and truncated phage clones to immobilized Flt-1 receptor by ELISA; conditions: relative to clone V5.2
[1] = target: VEGF receptor-1 (human Flt-1/Fc chimera) (Homo sapiens, UniProt P17948); assay: Phage binding assay to immobilized VEGF receptor-1 (anti-M13 ELISA); conditions: 10^9 virions/200 μl, overnight at 4 degree
VEGF receptor-1 (human Flt-1/Fc chimera), sequence (P17948 27-687 isoform P17948-2 limits assumed): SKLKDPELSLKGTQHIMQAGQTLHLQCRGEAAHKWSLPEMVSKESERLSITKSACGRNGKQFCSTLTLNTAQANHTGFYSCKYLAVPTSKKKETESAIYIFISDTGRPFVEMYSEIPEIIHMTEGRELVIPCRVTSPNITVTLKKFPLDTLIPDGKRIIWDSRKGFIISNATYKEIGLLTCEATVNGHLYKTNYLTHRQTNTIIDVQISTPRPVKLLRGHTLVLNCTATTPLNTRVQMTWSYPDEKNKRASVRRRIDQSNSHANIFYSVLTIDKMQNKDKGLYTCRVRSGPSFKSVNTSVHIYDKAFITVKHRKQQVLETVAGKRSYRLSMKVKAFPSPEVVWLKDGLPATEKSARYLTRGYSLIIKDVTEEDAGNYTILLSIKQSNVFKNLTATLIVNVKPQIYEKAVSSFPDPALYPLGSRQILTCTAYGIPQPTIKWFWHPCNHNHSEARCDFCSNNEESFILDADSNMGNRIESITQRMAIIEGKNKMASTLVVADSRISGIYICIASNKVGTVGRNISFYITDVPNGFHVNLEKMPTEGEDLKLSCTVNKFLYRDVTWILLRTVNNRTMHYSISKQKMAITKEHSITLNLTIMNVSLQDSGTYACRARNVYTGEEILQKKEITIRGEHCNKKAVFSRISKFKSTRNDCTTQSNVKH

endothelial cells = conditions: VEGF binding to KDR; cited from earlier work
Flt-1 = Flt-1 (Homo sapiens, UniProt P17948); conditions: cited from earlier work
Flt-1, sequence (P17948 27-1338, species assumed): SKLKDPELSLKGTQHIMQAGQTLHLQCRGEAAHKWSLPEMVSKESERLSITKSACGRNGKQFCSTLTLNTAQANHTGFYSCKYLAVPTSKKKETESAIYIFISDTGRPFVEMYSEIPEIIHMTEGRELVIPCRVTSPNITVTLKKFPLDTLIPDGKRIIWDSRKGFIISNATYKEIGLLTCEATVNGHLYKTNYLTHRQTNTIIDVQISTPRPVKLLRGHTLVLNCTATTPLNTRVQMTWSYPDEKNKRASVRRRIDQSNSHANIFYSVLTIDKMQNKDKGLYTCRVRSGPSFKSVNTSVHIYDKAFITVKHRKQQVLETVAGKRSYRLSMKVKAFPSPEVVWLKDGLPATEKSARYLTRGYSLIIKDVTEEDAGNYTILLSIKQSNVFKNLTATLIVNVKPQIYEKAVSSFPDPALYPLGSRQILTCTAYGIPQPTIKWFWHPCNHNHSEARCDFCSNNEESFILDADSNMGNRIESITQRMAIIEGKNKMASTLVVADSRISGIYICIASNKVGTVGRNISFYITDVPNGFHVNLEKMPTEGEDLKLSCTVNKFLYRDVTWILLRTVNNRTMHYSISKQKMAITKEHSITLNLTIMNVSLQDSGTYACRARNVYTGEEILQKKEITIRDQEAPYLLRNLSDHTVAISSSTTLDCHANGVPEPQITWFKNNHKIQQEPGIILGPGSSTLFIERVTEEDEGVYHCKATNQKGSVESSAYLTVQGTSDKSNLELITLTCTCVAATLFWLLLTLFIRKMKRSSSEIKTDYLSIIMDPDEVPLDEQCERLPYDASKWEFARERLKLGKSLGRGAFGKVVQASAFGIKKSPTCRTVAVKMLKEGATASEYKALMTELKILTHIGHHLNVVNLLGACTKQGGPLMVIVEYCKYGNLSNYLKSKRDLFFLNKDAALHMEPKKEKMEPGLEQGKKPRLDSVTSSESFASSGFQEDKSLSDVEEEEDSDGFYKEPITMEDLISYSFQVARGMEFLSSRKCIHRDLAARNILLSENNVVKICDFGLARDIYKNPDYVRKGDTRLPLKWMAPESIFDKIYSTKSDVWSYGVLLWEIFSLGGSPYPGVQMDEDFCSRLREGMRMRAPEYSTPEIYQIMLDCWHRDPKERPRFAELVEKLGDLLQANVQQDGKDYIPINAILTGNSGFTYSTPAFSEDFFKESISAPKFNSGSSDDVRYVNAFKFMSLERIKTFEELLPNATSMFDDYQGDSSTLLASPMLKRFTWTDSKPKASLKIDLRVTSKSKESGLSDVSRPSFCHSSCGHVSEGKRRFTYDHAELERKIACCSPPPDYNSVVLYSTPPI

hFlt-1, sequence (P17948 27-687 isoform P17948-2 limits assumed): as the sequence (P17948 27-687 isoform P17948-2 limits assumed) above

EIEWYSW (displayed on phage; Chemical peptide synthesis and biosynthesis utilizing E. coli) [V5.2/1]
Binding to hFlt-1 in % (hFlt-1): 6.55 ± 15.81%

FVGGWLVPEDERLYPE [V40]
ABSORBANCE, A 405 [1]: 0.025 ± 0.014

NGYAIAWYSWVTHGMY (displayed on phage; Chemical peptide synthesis and biosynthesis utilizing E. coli) [E46/A]
Binding to hFlt-1 in % (hFlt-1): 44.46 ± 7.05%

NGYEIEAYSAVTHGMY (displayed on phage; Chemical peptide synthesis and biosynthesis utilizing E. coli) [W710/A]
Binding to hFlt-1 in % (hFlt-1): 62.15 ± 22.16%

PEPEVRLSPPGHIQSL [V5.10]
ABSORBANCE, A 405 [1]: 0.039 ± 0.013

VEGF
ED50 (endothelial cells): 0.1 to 1 ng/mL | Kd (Flt-1): 0.01 to 0.02 nM
